Measured values published in ChEMBL document CHEMBL1155492, “Evaluation of thieno[3,2-b]pyrrole[3,2-d]pyridazinones as activators of the tumor cell specific M2 isoform of pyruvate kinase” (Bioorg Med Chem Lett, 2010).
Activity calls are given as the source filed them. The calls are words filed in the database; no cut-off is given here.

What was measured:
[1] = biological target: Pyruvate kinase PKM (Homo sapiens) (UniProt P14618); assay: Maximum activation of human PKM2 assessed as ATP product formation at 57 uM after 1 hr by luminescent pyruvate kinase-luciferase coupled assay relative to fructose-1,6-bis-phosphate
[2] = biological target: Pyruvate kinase PKM (Homo sapiens) (UniProt P14618); assay: Activation of PKM1 assessed as pyruvate formation by fluorescent pyruvate kinase-lactate dehydrogenase coupled assay
[3] = biological target: Pyruvate kinase PKM (Homo sapiens) (UniProt P14618); assay: Activation of PKM1 assessed as ATP product formation by luminescent pyruvate kinase-luciferase coupled assay
[4] = tested on: O=P(O)(O)OC[C@H]1O[C@@](O)(COP(=O)(O)O)[C@@H](O)[C@@H]1O; assay: Activation of human PKM2 assessed as reduction of Km for phosphoenolpyruvate
[5] = tested on: O=P(O)(O)OC[C@H]1O[C@@](O)(COP(=O)(O)O)[C@@H](O)[C@@H]1O; assay: Activation of human PKM2 assessed as effect on Km for ADP

Pyruvate kinase PKM (Homo sapiens), sequence (P14618 2-531 limits assumed): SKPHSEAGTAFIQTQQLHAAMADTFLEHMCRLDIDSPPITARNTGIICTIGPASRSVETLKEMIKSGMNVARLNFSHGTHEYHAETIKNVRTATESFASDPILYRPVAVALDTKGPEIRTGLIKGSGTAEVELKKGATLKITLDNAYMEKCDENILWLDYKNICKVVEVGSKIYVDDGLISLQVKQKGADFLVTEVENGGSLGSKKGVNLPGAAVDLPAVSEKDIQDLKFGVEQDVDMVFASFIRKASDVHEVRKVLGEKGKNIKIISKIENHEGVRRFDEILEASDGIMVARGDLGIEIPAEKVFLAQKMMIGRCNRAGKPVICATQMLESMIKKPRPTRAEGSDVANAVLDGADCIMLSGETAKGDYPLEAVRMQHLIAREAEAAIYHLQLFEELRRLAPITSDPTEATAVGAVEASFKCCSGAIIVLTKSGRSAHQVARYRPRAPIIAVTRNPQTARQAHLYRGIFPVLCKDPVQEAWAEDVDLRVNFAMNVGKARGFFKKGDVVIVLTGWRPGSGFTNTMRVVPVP
Pyruvate kinase PKM (Homo sapiens), P14618, sequence (P14618 whole entry): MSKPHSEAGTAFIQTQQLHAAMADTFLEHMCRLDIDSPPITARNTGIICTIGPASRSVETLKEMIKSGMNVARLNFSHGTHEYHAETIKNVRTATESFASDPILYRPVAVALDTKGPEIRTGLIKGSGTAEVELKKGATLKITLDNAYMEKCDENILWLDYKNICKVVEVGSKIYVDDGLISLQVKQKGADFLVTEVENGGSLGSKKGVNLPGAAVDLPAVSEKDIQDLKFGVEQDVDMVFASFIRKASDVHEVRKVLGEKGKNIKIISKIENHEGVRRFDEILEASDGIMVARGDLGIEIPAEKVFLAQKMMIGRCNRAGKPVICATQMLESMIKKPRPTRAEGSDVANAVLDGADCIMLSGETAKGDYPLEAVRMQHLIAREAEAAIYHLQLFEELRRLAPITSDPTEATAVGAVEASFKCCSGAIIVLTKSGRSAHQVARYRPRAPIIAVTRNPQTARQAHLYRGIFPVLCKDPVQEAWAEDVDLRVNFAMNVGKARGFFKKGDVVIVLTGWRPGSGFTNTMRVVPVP

Compound	Activity [1]	Activity [2]	Activity [3]	Km [4] [µM]	Km [5] [µM]
COc1ccc(Cn2ncc3c4sc(C)cc4n(C)c3c2=O)cc1	96%	inactive	inactive	–	–
Cn1c2cc([S+](C)[O-])sc2c2cnn(Cc3ccccc3F)c(=O)c21 (stereo not drawn)	98%	inactive	inactive	–	–
CC(O)c1cc2c(s1)c1cnn(Cc3ccccc3F)c(=O)c1n2C (stereo not drawn)	120%	inactive	inactive	–	–
CC(=O)Nc1cc2c(s1)c1cnn(Cc3ccccc3F)c(=O)c1n2C	59%	inactive	inactive	–	–
Cn1c2ccsc2c2ncn(Cc3ccccc3F)c(=O)c21	61%	inactive	inactive	–	–
Cc1ccc(Cn2ncc3c4sc(C)cc4n(C)c3c2=O)cc1	84%	inactive	inactive	–	–
Cc1cc2c(s1)c1cnn(-c3ccccc3)c(=O)c1n2C	inactive	inactive	inactive	–	–
Cc1ccc(Cn2ncc3c4sc(C)cc4n(C)c3c2=O)c(F)c1	81%	inactive	inactive	–	–
COC(=O)c1cc2c(s1)c1cnn(Cc3ccccc3F)c(=O)c1n2C	70%	inactive	inactive	–	–
Cc1cc2c(s1)c1cnn(Cc3cccc(F)c3F)c(=O)c1n2C	73%	inactive	inactive	–	–
Cc1cc2c(s1)c1cnn(Cc3ccc(F)cc3F)c(=O)c1n2C	–	inactive	inactive	–	–
Cn1c2cc([N+](=O)[O-])sc2c2cnn(Cc3ccccc3F)c(=O)c21	–	inactive	inactive	–	–
Cc1cc2c(s1)c1c(C)nn(Cc3ccccc3F)c(=O)c1n2C	56%	inactive	inactive	–	–
Cc1cc2c(s1)c1cnn(Cc3c(F)cccc3F)c(=O)c1n2C	94%	inactive	inactive	–	–
Cn1c2cc([S+](C)[O-])sc2c2cnn(Cc3cccc(O)c3)c(=O)c21 (stereo not drawn)	102%	inactive	inactive	–	–
Cc1cc2c(s1)c1cnn(Cc3ccccc3F)c(=O)c1n2C(C)C	inactive	inactive	inactive	–	–
CCn1c2cc(C)sc2c2cnn(Cc3ccccc3F)c(=O)c21	96%	inactive	inactive	–	–
Cc1cc2c(s1)c1cnn(Cc3ccc(C(F)(F)F)cc3F)c(=O)c1n2C	59%	inactive	inactive	–	–
Cc1cc2c(s1)c1cnn(Cc3ccc(F)c(F)c3F)c(=O)c1n2C	69%	inactive	inactive	–	–
Cn1c2cc(C=O)sc2c2cnn(Cc3ccccc3F)c(=O)c21	100%	inactive	inactive	–	–
CC(C)c1cc2c(s1)c1cnn(Cc3ccccc3F)c(=O)c1n2C	106%	inactive	inactive	–	–
Cc1cc2c(s1)c1cnn(Cc3cccc(C)c3F)c(=O)c1n2C	97%	inactive	inactive	–	–
COc1cccc(Cn2ncc3c4sc([S+](C)[O-])cc4n(C)c3c2=O)c1 (stereo not drawn)	99%	inactive	inactive	–	–

Compound	Activity [1]	Activity [2]	Activity [3]	Km [4] [µM]	Km [5] [µM]
Cn1c2cc(C#N)sc2c2cnn(Cc3ccccc3F)c(=O)c21	84%	inactive	inactive	–	–
Cc1cc2c(s1)c1cnn(Cc3cccc(F)c3)c(=O)c1n2C	92%	inactive	inactive	–	–
Cc1cc2c(s1)c1cnn(Cc3ccccc3Cl)c(=O)c1n2C	96%	inactive	inactive	–	–
Cc1cc2c(s1)c1cnn(Cc3c(F)c(F)cc(F)c3F)c(=O)c1n2C	59%	inactive	inactive	–	–
Cn1c2ccsc2c2cnn(Cc3ccccc3F)c(=O)c21	93%	inactive	inactive	–	–
CSc1cc2c(s1)c1cnn(Cc3ccccc3F)c(=O)c1n2C	96%	inactive	inactive	–	–
Cc1cc2c(s1)c1cnn(Cc3ccccc3)c(=O)c1n2C	–	inactive	inactive	–	–
Cc1cc2c(s1)c1cnn(Cc3c(F)cccc3Cl)c(=O)c1n2C	93%	inactive	inactive	–	–
Cc1cc2c(s1)c1cnn(Cc3ccccc3F)c(=O)c1n2C	122%	inactive	inactive	–	–
Cn1c2cc(B(O)O)sc2c2cnn(Cc3ccccc3F)c(=O)c21	101%	inactive	inactive	–	–
Cc1cc2c(s1)c1cnn(Cc3ccc(F)cc3)c(=O)c1n2C	102%	inactive	inactive	–	–
Cc1cc2c(s1)c1cnn(Cc3cccc(Cl)c3)c(=O)c1n2C	99%	inactive	inactive	–	–
Cn1c2cc(CO)sc2c2cnn(Cc3ccccc3F)c(=O)c21	103%	inactive	inactive	–	–
Cc1cc2c(s1)c1cnn(Cc3ccc(Cl)cc3)c(=O)c1n2C	91%	inactive	inactive	–	–
Cc1cc2[nH]c3c(=O)n(Cc4ccccc4F)ncc3c2s1	inactive	inactive	inactive	–	–
Cn1c2cc(S(C)(=O)=O)sc2c2cnn(Cc3ccccc3F)c(=O)c21	inactive	inactive	inactive	–	–
COc1cc2c(s1)c1cnn(Cc3ccccc3F)c(=O)c1n2C	–	inactive	inactive	–	–
CCc1cc2c(s1)c1cnn(Cc3ccccc3F)c(=O)c1n2C	105%	inactive	inactive	–	–
Pyruvate kinase PKM (Homo sapiens), P14618	–	–	–	100	100
CC(=O)c1cc2c(s1)c1cnn(Cc3ccccc3F)c(=O)c1n2C	108%	inactive	inactive	–	–
Cc1cc2c(s1)c1cnn(Cc3ccc(C(F)(F)F)cc3)c(=O)c1n2C	56%	inactive	inactive	–	–
COc1ccc(Cn2ncc3c4sc(C)cc4n(C)c3c2=O)cc1F	68%	inactive	inactive	–	–
CCCCCn1ncc2c3sc(C)cc3n(C)c2c1=O	47%	inactive	inactive	–	–
